Data published in publication PMC10714400, “Antimicrobial Peptide–Peptoid Hybrids with and without Membrane Disruption” (ACS Infectious Diseases, 2023).
Values after ≈ are worked out from the molar mass of the structure shown. Where two headings read alike, the source gives them in different places. Where a SMILES comes first, the peptide text is derived from it. [ ]: non-standard residue; d: D form. Nleu = CC(C)CNCC(=O)O; Nlys = NCCCCNCC(=O)O

How the values were obtained:
K. pneumoniae OXA-48 = system: K. pneumoniae OXA-48
Summary of the method: (§1)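 Microdilution MIC in MH broth; inocula from overnight LB cultures at 37 °C, about 5 × 10^5 CFU per well. Plates stood ca. 18 h at 37 °C, then MTT (1 mg/mL) was added for 20–30 min at RT, and wells remaining yellow marked inhibition.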

P. aeruginosa PAO1 = settings: PAO1, 4 h
Summary of the method: as §1

A. baumannii ATCC19606 = settings: ATCC19606, 4 h
Summary of the method: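 MTT added (20–30 min, room temperature); MIC read by eye as lowest concentration inhibiting visible growth (yellow). Polymyxin B positive control from 16 μg/mL.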

S. aureus COL (MRSA) = settings: COL, 4 h
Summary of the method: as §1

[1] = system: ZEM9A (clinical MDR P. aeruginosa isolate)
Summary of the method: as §1

PA14 4.18 (pmrB) = system: PA14 4.18 (pmrB)
Summary of the method: as §1

[2] = system: ZEM-1A (clinical MDR P. aeruginosa isolate); settings: CSV
Summary of the method: as §1

PA14 2P4 (pmrB) = system: PA14 2P4 (pmrB)
Summary of the method: as §1

P. aeruginosa PA14 = system: P. aeruginosa PA14
Summary of the method: as §1

S. aureus Newman = settings: Newman
Summary of the method: as §1

S. maltophilia = system: S. maltophilia
Summary of the method: as §1

B. cenocepacia = settings: pH 7.4
Summary of the method: as §1

S. epidermis = system: S. epidermis
Summary of the method: as §1

[3] = system: human red blood cells (hRBC); assay: Minimum hemolytic concentration (MHC); assay type: cell-based
Source text: We also measured minimal hemolysis concentrations (MHC) on human red blood cells by serial 2-fold dilution as an indication of toxicity against eukaryotic cells (Table 1).

## CC(C)C[C@H](NC(=O)[C@H](CC(C)C)NC(=O)[C@H](CC(C)C)NC(=O)[C@H](CCCCN)NC(=O)[C@H](CC(C)C)NC(=O)[C@H](CC(C)C)NC(=O)CN(CCCCN)C(=O)CN(CC(C)C)C(=O)CN(CC(C)C)C(=O)CN(CCCCN)C(=O)CNCCCCN)C(N)=O [EB5, kkllkLLKLLL] (H-[Nlys][Nlys][Nleu][Nleu][Nlys]LLKLLL-NH2)
K. pneumoniae OXA-48; CSV, […] MH at pH 8.5
  MIC K. pneumoniae OXA-48, […] MH at pH 8.5: 8 ug/mL
K. pneumoniae OXA-48; CSV, full MH at pH 7.4
  MIC K. pneumoniae OXA-48, full MH at pH 7.4: >32 ug/mL
K. pneumoniae OXA-48; MH pH 7.4, 16–20 h at 37 °C
  MIC K. pneumoniae OXA-48: 32 to 64 mg/L
K. pneumoniae OXA-48; Table S3, […] MH at pH 8.5
  MIC K. pneumoniae OXA-48: 8 mg/L (≈ 6.05 µM)
P. aeruginosa PAO1; pH 7.4
  MIC P. aeruginosa PAO1, full MH at pH 7.4: 4 ug/mL
P. aeruginosa PAO1; pH 8.5
  MIC P. aeruginosa PAO1, full MH at pH 8.5: >32 ug/mL
A. baumannii ATCC19606; pH 7.4
  MIC A. baumannii ATCC19606, full MH at pH 7.4: 2 ug/mL
A. baumannii ATCC19606; pH 8.5
  MIC A. baumannii ATCC19606, full MH at pH 8.5: >32 ug/mL
S. aureus COL (MRSA); pH 7.4
  MIC S. aureus COL (MRSA), full MH at pH 7.4: 8 ug/mL
S. aureus COL (MRSA); pH 8.5
  MIC S. aureus COL (MRSA), full MH at pH 8.5: >32 ug/mL
[1]; CSV, […] MH at pH 8.5
  MIC P. aeruginosa ZEM9A, […] MH at pH 8.5: 2 ug/mL
[1]; CSV, full MH at pH 7.4
  MIC P. aeruginosa ZEM9A, full MH at pH 7.4: 8 ug/mL
[1]; MH pH 7.4, 16–20 h at 37 °C
  MIC ZEM9A: 8 mg/L (≈ 6.05 µM)
[1]; Table S3, […] MH at pH 8.5
  MIC P. aeruginosa ZEM9A: 2 mg/L (≈ 1.51 µM)
PA14 4.18 (pmrB); CSV, […] MH at pH 8.5
  MIC P. aeruginosa PA14 4.18, […] MH at pH 8.5: 2 ug/mL
PA14 4.18 (pmrB); CSV, full MH at pH 7.4
  MIC P. aeruginosa PA14 4.18, full MH at pH 7.4: 32 ug/mL
PA14 4.18 (pmrB); MH pH 7.4, 16–20 h at 37 °C
  MIC PA14 4.18 (pmrB): 32 mg/L (≈ 24.2 µM)
PA14 4.18 (pmrB); Table S3, […] MH at pH 8.5
  MIC P. aeruginosa PA14 4.18: 2 mg/L (≈ 1.51 µM)
[2]; […] MH at pH 8.5
  MIC P. aeruginosa ZEM-1A, […] MH at pH 8.5: 2 ug/mL
[2]; full MH at pH 7.4
  MIC P. aeruginosa ZEM-1A, full MH at pH 7.4: 2 ug/mL
PA14 2P4 (pmrB); CSV, […] MH at pH 8.5
  MIC P. aeruginosa PA14 2P4, […] MH at pH 8.5: 2 ug/mL
PA14 2P4 (pmrB); CSV, full MH at pH 7.4
  MIC P. aeruginosa PA14 2P4, full MH at pH 7.4: >32 ug/mL
PA14 2P4 (pmrB); MH pH 7.4, 16–20 h at 37 °C
  MIC PA14 2P4 (pmrB): >32 mg/L
PA14 2P4 (pmrB); Table S3, […] MH at pH 8.5
  MIC P. aeruginosa PA14 2P4: 2 mg/L (≈ 1.51 µM)
P. aeruginosa PA14; PA14, 4 h, pH 7.4
  MIC P. aeruginosa PA14, full MH at pH 7.4: 6 ug/mL
P. aeruginosa PA14; PA14, pH 7.4
  MIC P. aeruginosa PA14: 4 to 8 mg/L
P. aeruginosa PA14; PA14, pH 8.5
  MIC P. aeruginosa PA14: 2 mg/L (≈ 1.51 µM)
S. aureus Newman; 4 h, pH 7.4
  MIC S. aureus Newman, full MH at pH 7.4: >32 ug/mL
S. aureus Newman; 4 h, pH 8.5
  MIC S. aureus Newman: 2 mg/L (≈ 1.51 µM)
S. aureus Newman; pH 7.4
  MIC S. aureus Newman: >32 mg/L
S. maltophilia; 4 h, pH 7.4
  MIC S. maltophilia, full MH at pH 7.4: 8 ug/mL
S. maltophilia; 4 h, pH 8.5
  MIC S. maltophilia: 4 to 8 mg/L
S. maltophilia; pH 7.4
  MIC S. maltophilia: 8 mg/L (≈ 6.05 µM)
B. cenocepacia; 4 h
  MIC B. cenocepacia, full MH at pH 7.4: >32 ug/mL
B. cenocepacia
  MIC B. cenocepacia: >32 mg/L
S. epidermis; 4 h, pH 7.4
  MIC S. epidermis, full MH at pH 7.4: 6 ug/mL
S. epidermis; 4 h, pH 8.5
  MIC S. epidermis: 2 mg/L (≈ 1.51 µM)
S. epidermis; pH 7.4
  MIC S. epidermis: 4 to 8 mg/L
[3]
  MHC: 1000 µg/mL
[3]; red cells of human
  MHC (hemolysis): 250 to 1000 µg/mL
